The text below walks through data of US9408845B2, “Formulations containing pyridazine compounds” (Northwestern University, priority 2006, dated 2016).

Structures are written as SMILES. “Also recorded” adds a separate entry of the source. Where two headings read alike, the source gives them in different places.

Data set [1] relates to LPS-induced IL-1β production in BV-2 microglia cells. Put plainly: LPS-induced IL-1β production in BV-2 microglial cells. Particulars: Mus musculus, BV-2, 16 h, read-out: IL-1β, concentration required for 50% inhibition.
In data set [2] the test system is nitric oxide (NO) production in BV-2 microglial cells. Put plainly: LPS-stimulated accumulation of nitrite (NO metabolite) in BV-2 cells, Griess assay. In kind it is cell-based, mouse. Particulars: Mus musculus, read-out: NO, concentration required for 50% inhibition. In general terms: Griess reagent forms a coloured azo dye with nitrite.
Data set [3] has as its system QT interval in Lead II electrocardiogram, anesthetized guinea pigs. Put plainly: Cardiac QT interval prolongation assay in anesthetized guinea pigs. Particulars: 15 mg/kg PO. The procedure: The QT interval studies are performed by evaluating compounds for effects on QT interval in Lead II electrocardiograms measured in anesthetized guinea pigs (Hirohashi et al., 1991, Arzneim.-Forsch./Drug Res 41:9-18), one of the species recommended in the FDA white paper. Vehicle or compound is administered orally at 15 mg/kg (dosing volume of 10 ml/kg) to groups of male guinea pigs (weighing 330-350 g), with 5 animals per group. […] Heart rate, arterial blood pressure, and QT intervals are measured at baseline, and at 15, 30, 45, and 60 min after compound administration. Sotalol administered iv at 0.3 mg/kg serves as the positive control compound. The QT intervals are corrected for changes in heart rate using both Bazetes and Fridericia's formulae. Any increase in QT interval values over baseline values exceeding the upper 95% confidence limit of the mean changes at the corresponding time point in the vehicle-treated control group for two consecutive observation times indicates significant QT interval prolongation in the individually treated animals.
The QT intervals (QTc) were corrected for changes in heart rate using both Bazett's and Fridericia's formulae.
The test substance was dissolved in 2% Tween 80 and administered by oral administration. The substance was treated at 15 mg/kg with a dosing volume of 10 ml/kg. Duncan Hartley derived guinea pigs provided by MDS Pharma Services—Taiwan Ltd were used. Sotalol was obtained from Sigma, USA.
Groups of guinea pigs (weighing 330-350 g) with 5 animals each were employed. The animals were anesthetized with urethane (1500 mg/kg, IV bolus injection in a volume of 5 ml/kg) and breathed spontaneously. Lead II ECG was obtained with subdermal needle electrodes and ECG signal conditioner. Heart rate was measured with a pulse rate tachometer. The carotid artery was cannulated with a catheter that was connected to a pressure transducer and a pressure processor for measurements of arterial blood pressure (BP). […] QTC intervals were obtained by correction for heart rate changes using Bazett's and Fridericia's formulae. Increase in QTc interval in individual treated guinea pigs that lies outside the upper limit of 95% confidence limits (mean±SD) of the changes for the vehicle-treated control at corresponding time points for two consecutive times is considered significant.

The subject of data set [4] is human Aβ infusion mouse model. Kind of data set: Human Aβ infusion mouse model, Y maze behavioral assay. In kind it is in vivo. Particulars: 1.25, 2.5, 5, and 10 mg/kg. The source says:
(§1) Once per day treatment will begin at day 21 after start of Aβ ICV infusion and continue for 14 days. Beginning at day 50 after start of Aβ ICV infusion, the Y maze test of spontaneous alternation will be used to evaluate hippocampus dependent spatial learning as described previously (Craf et al., J Mol. Neurosci. 24:115-122, 2004a). Briefly, each mouse will be placed in the “start” arm and then released to choose one of the two other arms. The mouse will be blocked from exiting the chosen arm for 30 s then they will be placed back in the start arm and released again to choose one of the two other arms. If the second choice is different from the first one, the mouse will be scored as alternating. Mice will be tested for 10 days with one trial per day, and a mean percent alternation will be calculated for each mouse. […] The brain will be removed and longitudinally bisected as described previously (Craft et al., Neurobiolo Aging 25:12834292, 2004b). […] The hippocampus will be dissected from the left half of the brain and snap-frozen for subsequent biochemical evaluation.

In data set [5] the test system is human Aβ infusion mouse model. Put plainly: Human Aβ infusion mouse model, hippocampal neuroinflammation and synaptic biochemical endpoints. In kind it is in vivo. The note with it: hippocampus, Aβ-infused mice, oral compound. On the procedure:
The study design and treatment paradigm for intracerebroventricular (ICV) infusion of human oligomerie Aβ1-42 into the mouse will be as described previously (Craft et al., Neurobiol Aging 25:1283-1292, 2004b), except that compound administration will be by mouth. Female C57Bl/6 mice (Harlan) weighing 20-25 g (3-4 months old) will be housed in a pathogen free facility under an approximate 12 h/12 h dark and light cycle and they will have access ad libitum to food and water.
as §1
S100B levels in hippocampal supernatants will be measured by a empium-based ELISA essentially as previously described (Van Eldik and Griffin, Biochem Biophys Acta 1223:398-403, 1994). Synaptophysin levels in hippocampal supernatants will be quantified by ELISA following the procedure described previously (Craft at al, 20041, supra). PSD-95 levels will be determined by Western blots using anti-PSD-95 antibodies (1:100,000 dilution; Upstate Biotechnology) as described (Craft et al., 2004b).
It was previously shown that Aβ-induced neuroinflammation is an early event associated with the onset and progression of pathophysiology, and can be suppressed by an inhibitor of glial activation. Female C57Bl/6 mice (Harlan) weighing […] (3-4 months old) were housed in a pathogen free facility under an approximate 12 h/12 h dark and light cycle and had access ad libitum to food and water. All animal procedures were approved by the Northwestern Animal Care and Use Committee.

For another data set, the system named is liver histology, mice. Put plainly: Chronic, therapeutic dose liver toxicity assay. The source says: Mice will be anesthetized and sacrificed as described above. Livers will be removed, fixed in 4% (v/v) paraformaldehyde and paraffin-embedded for histology. To assess histological toxicity, 4 μm liver sections will be stained with haematoxylin and eosin. Two independent observers blinded to the treatment groups will perform microscopic assessment of the tissue for injury.
After two weeks of treatment, mice are sacrificed and liver toxicity analyzed as described above. For each chronic toxicity assay, 5 mg of compound is required.
Mice were anesthetized and killed as described above. Livers were removed, fixed in 4% (v/v) paraformaldehyde, and paraffin-embedded for histology. To assess histological toxicity, 4 pan liver sections were stained with hematoxylin and eosin. Two independent observers blinded to the treatment groups performed microscopic assessment of the tissue for injury.

The conditions of data set [6]: mouse, in vivo.
For data set [7] the following is noted: Caccia et al., 1985; cited from earlier work.

For `Cc1cc(-c2ccccc2)nnc1N1CCN(c2ncccn2)CC1` [MW01-2-151SRM, 4-methyl-6-phenyl-3-(4-pyrimidin-2-ylpiperazin-1-yl)pyridazine], in data set [1], the IC50 stood at 8.3 ± 5.8 µM. In addition, the IC50 in data set [2] (LPS-stimulated BV-2 cells, 16 hrs) was above 25 µM. Also, in data set [3], the “effect on heart rate” value is recorded as “no significant effects” and the “effect on mean blood pressure” value is recorded as “no significant effects”. Moreover, the “QTc / QT interval prolongation” value in data set [3] (60 min post-dosing, 5 guinea pigs) was “did not cause any significant prolongation; also recorded: Neither compound increased”. Besides, the “prevention of Y-maze behavioral deficit” value in data set [4] is “significantly effective”. In data set [5], the “loss of PSD-95” value is “prevented”, the loss of synaptophysin entry was “prevented”, the “up-regulation of IL-1β” value was “blocked” and the “up-regulation of S100B” value is reported as “blocked”. Besides, in the data set with liver histology, mice (mouse, in vivo, po, […]), the “liver toxicity score versus control mice” value is listed as “no significant differences”.

As to `c1ccc(-c2cc(-c3ccccc3)c(N3CCN(c4ncccn4)CC3)nn2)cc1` [MW01-5-188WH, 4,6-diphenyl-3-(4-pyrimidin-2-ylpiperazin-1-yl)pyridazine], the IC50 in data set [2] (BV-2, 16 h) is above 25 µM. The “liver toxicity score versus control mice” value in the data set with liver histology, mice (mouse, in vivo, po, […]) is reported as “no significant differences”. Further, the oral bioavailability properties entry in data set [6] is recorded as “good oral bioavailability”. Besides, the “time of decline to basal levels / bulk clearance, plasma/blood” value in data set [6] (po) is recorded as at most 120 min.

Regarding `c1ccc(-c2cc(-c3ccncc3)c(N3CCN(c4ncccn4)CC3)nn2)cc1` [MW01-6-189WH, 4-pyridyl-6-phenyl-3-(4-pyrimidin-2-ylpiperazin-1-yl)pyridazine], the “prevention of Y-maze behavioral deficit” value in data set [4] is on record as “significantly effective”. For the same compound, in data set [5], the “loss of PSD-95” value was “prevented”, the loss of synaptophysin result is listed as “trend toward preventing”, the “up-regulation of IL-1β” value was “blocked” and the “up-regulation of S100B” value is on record as “blocked”. In addition, the “liver toxicity score versus control mice” value with liver histology, mice (C57Bl/6 mice, […] oral, 2 weeks, scale 0 (best) to 9 (worst)) is recorded as “no significant differences”.

On to `Cc1cc(-c2ccccc2)nnc1NCCN1CCOCC1` [minaprinc, minaprine], for which, in data set [7], the brain/blood ratio result is listed as “about 2”.
